One may read the melting point as the temperature, or range, at which the solid turns liquid.

Some results are limits rather than exact numbers.

Compound `COc1cc(-c2ccc3ncc(NC(=O)Nc4ccc5sccc5c4)nc3n2)ccc1O` [Compound 609] registered a melting point of 257 to 259 °C.
In the case of `CN(C)c1ccc(NC(=O)Nc2cnc3ccc(-c4cc(Cl)c(O)c(Cl)c4)nc3n2)cc1` [Compound 555, 1-[6-(3,5-Dichloro-4-hydroxy-phenyl)-pyrido[2,3-b]pyrazin-3-yl]-3-(4-dimethylamino-phenyl)-urea] it was 259 to 262 °C.
The compound `CCNC(=O)Nc1cnc2ccc(-c3cc(C)c(OC(C)C)c(C)c3)nc2n1` [Compound 597, 1-Ethyl-3-[6-(4-isopropoxy-3,5-dimethyl-phenyl)-pyrido[2,3-b]pyrazin-3-yl]-urea] displayed a melting point of 221 °C.
Take `CCNC(=O)Nc1ccc2ncc(-c3cc(Cl)ccc3Cl)nc2n1` [Compound 92, 1-[3-(2,5-Dichloro-phenyl)-pyrido[2,3-b]pyrazin-6-yl]-3-ethyl-urea]: the melting point fell in the range of 264 to 269 °C.
In the case of `CC(C)NC(=O)Nc1cnc2ccc(-c3cc(Cl)c(O)c(Cl)c3)nc2n1` [Compound 552, 1-[6-(3,5-Dichloro-4-hydroxy-phenyl)-pyrido[2,3-b]pyrazin-3-yl]-3-isopropyl-urea] it was 259 to 261 °C; in that of `CCNC(=O)Nc1cnc2ccc(-c3cccc(N)c3)nc2n1` [Compound 179, 1-[6-(3-Amino-phenyl)-pyrido[2,3-b]pyrazin-3-yl]-3-ethyl-urea], above 320 °C; in that of `CCNC(=O)Nc1ccc2ncc(-c3cc(Cl)c(OS(C)(=O)=O)c(OC)c3)nc2n1` [Compound 37, Methanesulfonic acid 2-chloro-4-[6-(3-ethyl-ureido)-pyrido[2,3-b]pyrazin-3-yl]-6-methoxy-phenyl ester], 247 to 249 °C.
In the case of `COc1cc(-c2ccc3ncc(NC(=O)Nc4ccc(F)cc4)nc3n2)ccc1O` [Compound 600, 1-(4-Fluoro-phenyl)-3-[6-(4-hydroxy-3-methoxy-phenyl)-pyrido[2,3-b]pyrazin-3-yl]-urea] it was 244 to 246 °C; in that of `COc1cc(Nc2cnc3ccc(NC(=S)NC(C)c4ccccc4)nc3n2)cc(OC)c1OC` (centres unmarked) [Compound 711, 1-(1-Phenyl-ethyl)-3-[3-(3,4,5-trimethoxy-phenylamino)-pyrido[2,3-b]pyrazin-6-yl]-thiourea], 248 °C; in that of `CCNC(=O)Nc1ccc2ncc(-c3c(F)cccc3OC)nc2n1` [Compound 137], 236 to 239 °C.
For `CCOc1ccc(NC(=O)Nc2cnc3ccc(-c4ccc(O)c(OC)c4)nc3n2)cc1` [Compound 624, 1-(4-Ethoxy-phenyl)-3-[6-(4-hydroxy-3-methoxy-phenyl)-pyrido[2,3-b]pyrazin-3-yl]-urea], the melting point fell in the range of 242 to 245 °C.
Regarding `CCNC(=S)Nc1ccc2ncc(Nc3cc(OC)cc(OC)c3)nc2n1` [Compound 157, 1-[3-(3,5-Dimethoxy-phenylamino)-pyrido[2,3-b]pyrazin-6-yl]-3-ethyl-thiourea], the melting point amounted to 265 °C.
The compound `COc1cc(-c2ccc3ncc(NC(=O)NC(C)C)nc3n2)ccc1O` [Compound 19, 1-[6-(4-Hydroxy-3-methoxy-phenyl)-pyrido[2,3-b]pyrazin-3-yl]-3-isopropyl-urea] gave a melting point of 212 to 214 °C.
The compound `CNC(=S)Nc1ccc2ncc(Nc3cc(OC)c(OC)c(OC)c3)nc2n1` [Compound 692, 1-Methyl-3-[3-(3,4,5-trimethoxy-phenylamino)-pyrido[2,3-b]pyrazin-6-yl]-thiourea] had a melting point of 258 to 261 °C.
In the case of `COc1ccc(-c2ccc3ncc(NC(=O)NC(C)C)nc3n2)cc1OC` [Compound 567, 1-[6-(3,4-Dimethoxy-phenyl)-pyrido[2,3-b]pyrazin-3-yl]-3-isopropyl-urea] it was 233 to 236 °C; in that of `CC(=O)NCC(=O)Nc1ccc2ncc(Nc3ccc(C)cc3)nc2n1` [Compound 66, 2-Acetylamino-N-(3-p-tolylamino-pyrido [2,3-b]pyrazin-6-yl)-acetamide], 276 to 279 °C.
`CCNC(=S)Nc1ccc2ncc(Nc3cc(Cl)c(O)c(Cl)c3)nc2n1` [Compound 166, 1-[3-(3,5-Dichloro-4-hydroxy-phenylamino)-pyrido[2,3-b]pyrazin-6-yl]-3-ethyl-thiourea]: the melting point stood at 278 °C.
In the case of `CCNC(=S)Nc1cnc2ccc(Nc3ccc(C4(C#N)CCCC4)cc3)nc2n1` [Compound 257, 1-{6-[4-(1-Cyano-cyclopentyl)-phenylamino]-pyrido[2,3-b]pyrazin-3-yl}-3-ethyl-thiourea] it was 216 °C.
In the case of `CCNC(=S)Nc1cnc2ccc(-c3cc(OC)c(OC)c(OC)c3)nc2n1` [Compound 650, 1-Ethyl-3-[6-(3,4,5-trimethoxy-phenyl)-pyrido[2,3-b]pyrazin-3-yl]-thiourea] it was 218 to 219 °C.
Turning to `O=C(Nc1cnc2ccc(-c3cc(Cl)c(O)c(Cl)c3)nc2n1)NC1CCCCC1` [Compound 558, 1-Cyclohexyl-3-[6-(3,5-dichloro-4-hydroxy-phenyl)-pyrido[2,3-b]pyrazin-3-yl]-urea], the melting point was in the range of 272 to 275 °C.
Regarding `COc1cc(-c2ccc3ncc(NC(=S)NC(C)(C)C)nc3n2)ccc1O` [Compound 652, 1-tert-Butyl-3-[6-(4-hydroxy-3-methoxy-phenyl)-pyrido[2,3-b]pyrazin-3-yl]-thiourea], the melting point is 213 to 215 °C.
In the case of `COc1ccc(NC(=O)Nc2cnc3ccc(-c4ccc(O)c(OC)c4)nc3n2)cc1` [Compound 625, 1-(4-Methoxy-phenyl)-3-[6-(4-hydroxy-3-methoxy-phenyl)-pyrido[2,3-b]pyrazin-3-yl]-urea] it was 235 to 238 °C.
In the case of `CCNC(=O)Nc1cnc2ccc(-c3ccc(O)cc3)nc2n1` [Compound 182, 1-Ethyl-3-[6-(4-hydroxy-phenyl)-pyrido[2,3-b]pyrazin-3-yl]-urea] it was 277 to 279 °C.
In the case of `CCNC(=O)Nc1ccc2ncc(-c3ccccc3C(F)(F)F)nc2n1` [Compound 97, 1-Ethyl-3-[3-(2-trifluoromethyl-phenyl)-pyrido[2,3-b]pyrazin-6-yl]-urea] it was 240 to 243 °C; in that of `CCNC(=O)Nc1ccc2ncc(Nc3cccc(C(C)=O)c3)nc2n1` [Compound 170, 1-[3-(3-Acetyl-phenylamino)-pyrido[2,3-b]pyrazin-6-yl]-3-ethyl-urea], 243 °C.
As for `CCNC(=S)Nc1ccc2ncc(-c3cccc(OC(C)C)c3)nc2n1` [Compound 127, 1-Ethyl-3-[3-(3-isopropoxy-phenyl)-pyrido[2,3-b]pyrazin-6-yl]-thiourea], the melting point stood at 227 °C.
In the case of `CCNC(=O)Nc1ccc2ncc(-c3cccc(SC)c3)nc2n1` [Compound 117, 1-Ethyl-3-[3-(3-methylsulfanyl-phenyl)-pyrido[2,3-b]pyrazin-6-yl]-urea] it was 221 to 224 °C; in that of `CCNC(=O)Nc1ccc2ncc(Nc3cc(C)c(O)cc3C)nc2n1` [Compound 446, 1-Ethyl-3-[3-(4-hydroxy-2,5-dimethyl-phenylamino)-pyrido[2,3-b]pyrazin-6-yl]-urea], 222 °C.
Turning to `CCNC(=O)Nc1ccc2ncc(-c3ccc(C)c(F)c3)nc2n1` [Compound 83, 1-Ethyl-3-[3-(3-fluoro-4-methyl-phenyl)-pyrido[2,3-b]pyrazin-6-yl]-urea], the melting point fell in the range of 247.8 to 252.4 °C.
In the case of `CCNC(=O)Nc1ccc2ncc(-c3cc(C)cc(Br)c3OCc3ccccc3)nc2n1` [Compound 109, 1-[3-(2-Benzyloxy-3-bromo-5-methyl-phenyl)-pyrido[2,3-b]pyrazin-6-yl]-3-ethyl-urea], the melting point lay within 236 to 238 °C.
Compound `COc1cc(-c2ccc3ncc(NC(=O)NCc4ccccc4)nc3n2)ccc1O` [Compound 29, 1-Benzyl-3-[6-(4-hydroxy-3-methoxy-phenyl)-pyrido[2,3-b]pyrazin-3-yl]-urea] showed a melting point of 229 to 231 °C.
In the case of `Cc1cc(-c2ccc3ncc(NC(=O)Nc4ccc(N(C)C)cc4)nc3n2)cc(C)c1O` [Compound 583] it was 273 to 275 °C; in that of `CCNC(=O)Nc1ccc2ncc(-c3cc4ccccc4[nH]3)nc2n1` [Compound 70, 1-Ethyl-3-[3-(1H-indol-2-yl)-pyrido[2,3-b]pyrazin-6-yl]-urea], above 300 °C.
As for `CCNC(=O)Nc1ccc2ncc(-c3cc(OC)ccc3OC)nc2n1` [Compound 145, 1-[3-(2,5-Dimethoxy-phenyl)-pyrido[2,3-b]pyrazin-6-yl]-3-ethyl-urea], the melting point was 207 to 209 °C.
The compound `CCNC(=O)Nc1cnc2ccc(-c3cc(OC)c(OC)c(OC)c3)nc2n1` [Compound 23, 1-Ethyl-3-[6-(3,4,5-trimethoxy-phenyl)-pyrido[2,3-b]pyrazin-3-yl]-urea] gave a melting point above 230 °C.
As to `CCNC(=S)Nc1cnc2ccc(Nc3ccc(C)c(OC)c3)nc2n1` [Compound 210, 1-Ethyl-3-[6-(3-methoxy-4-methyl-phenylamino)-pyrido[2,3-b]pyrazin-3-yl]-thiourea], the melting point was found to be 148 °C.
In the case of `CCNC(=O)Nc1cnc2ccc(-c3cc(C)c(O)c(Cl)c3)nc2n1` [Compound 642, 1-[6-(3-Chloro-4-hydroxy-5-methyl-phenyl)-pyrido[2,3-b]pyrazin-3-yl]-3-ethyl-urea] it was 266 °C; in that of `COc1cc(-c2ccc3ncc(NC(=O)Nc4cccc(-n5cccc5)c4)nc3n2)ccc1O` [Compound 619, 1-[6-(4-Hydroxy-3-methoxy-phenyl)-pyrido[2,3-b]pyrazin-3-yl]-3-(3-pyrrol-1-yl-phenyl)-urea], 214 to 217 °C.
For the compound `CCNC(=O)Nc1cnc2ccc(NCC3CC3)nc2n1` [Compound 231, 1-[6-(Cyclopropylmethyl-amino)-pyrido[2,3-b]pyrazin-3-yl]-3-ethyl-urea], the melting point is 201 to 203 °C.
In the case of `CCNC(=O)Nc1ccc2ncc(-c3ccc(NC(=O)OCCOC)c(OC)c3)nc2n1` [Compound 40, {4-[6-(3-Ethyl-ureido)-pyrido[2,3-b]pyrazin-3-yl]-2-methoxy-phenyl}-carbamic acid 2-methoxy-ethyl ester] it was above 240 °C; in that of `CCNC(=O)Nc1ccc2ncc(-c3ccc(NC(C)=O)c(OC)c3)nc2n1` [Compound 77, N-{4-[6-(3-Ethyl-ureido)-pyrido[2,3-b]pyrazin-3-yl]-2-methoxy-phenyl}-acetamide], above 300 °C.

Values taken from patent US8536332B2, “Modulating signal transduction pathways with substituted pyridol [2,3-b] pyrazines” (Aeterna Zentaris GmbH, priority 2007, dated 2013).
